Data taken from ChEMBL document CHEMBL4020781, “Discovery of potent and orally active 1,4-disubstituted indazoles as novel allosteric glucokinase activators” (Bioorg Med Chem Lett, 2017).
The source made the active and inactive calls. The rule behind the calls is not given here.

Key:
Hexokinase-4 = target: T1, Hexokinase-4 (Homo sapiens, UniProt P35557); experiment: Activation of full length human C-terminal FLAG-tagged glucokinase (12 to 465 residues) expressed in Escherichia coli DH10b using glucose as substrate after 60 mins in presence of ATP by kinase-glo luminescence assay
T1 sequence (P35557 whole entry): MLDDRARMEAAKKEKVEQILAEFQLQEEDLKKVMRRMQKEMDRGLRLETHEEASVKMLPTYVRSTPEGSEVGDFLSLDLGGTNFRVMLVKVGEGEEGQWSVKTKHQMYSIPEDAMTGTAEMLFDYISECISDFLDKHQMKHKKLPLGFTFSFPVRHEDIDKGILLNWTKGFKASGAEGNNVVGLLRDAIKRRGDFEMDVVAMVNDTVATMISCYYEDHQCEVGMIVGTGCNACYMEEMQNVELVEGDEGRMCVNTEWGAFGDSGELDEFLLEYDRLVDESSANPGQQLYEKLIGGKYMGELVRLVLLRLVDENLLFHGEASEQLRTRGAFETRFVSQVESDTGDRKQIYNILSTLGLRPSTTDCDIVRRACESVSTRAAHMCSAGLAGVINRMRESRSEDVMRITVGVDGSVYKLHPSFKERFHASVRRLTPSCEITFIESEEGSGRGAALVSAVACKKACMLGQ

hERG (KCNH2) = hERG (KCNH2) (Homo sapiens, UniProt Q12809); experiment: Inhibition of human ERG at 10 uM
[1] = target: T2, Hexokinase-4 (Homo sapiens) (UniProt P35557); experiment: Activation of full length human C-terminal FLAG-tagged glucokinase (12 to 465 residues) expressed in Escherichia coli DH10b using glucose as substrate after 60 mins in presence of ATP by kinase-glo luminescence assay relative to control
T2 sequence (whole entry): T1 sequence (P35557 whole entry)

[2] = Hepatic extraction ratio in rat liver microsomes; format: ADME, microsome; settings: read-out: ERH
[3] = Hepatic extraction ratio in human liver microsomes; format: ADME, microsome; settings: read-out: ERH
[4] = Plasma protein binding in human; format: ADME, cell-free; settings: read-out: PPB (converted)
[5] = target: T2, Hexokinase-4 (Homo sapiens); experiment: Potency index, ratio of (S)-N-(5-chlorothiazol-2-yl)-2-(4-(cyclopropylsulfonyl)-6-methyl-2-oxopyridin-1(2H)-yl)-3-(tetrahydro-2H-pyran-4-yl)propanamide EC50 to compound EC50 for full length human C-terminal FLAG-tagged glucokinase (12 to 465 residues)
Mus musculus [6] = experiment: Antidiabetic activity in C57BL/6J mouse assessed as glucose lowering effect at 30 mg/kg, po; format: functional, organism-based
[7] = Hepatic extraction ratio in mouse liver microsomes; format: ADME, microsome; settings: read-out: ERH
[8] = Half life in orally dosed rat; format: ADME, organism-based; settings: in vivo, po
[9] = Clearance in orally dosed rat; format: ADME, organism-based; settings: in vivo, po
Rattus norvegicus = experiment: Volume of distribution in orally dosed rat; format: ADME, organism-based; settings: in vivo, po
[10] = Oral bioavailability in rat; format: ADME, organism-based; settings: in vivo
Mus musculus [11] = experiment: Antidiabetic activity in ob/ob mouse assessed as reduction in glucose excursion at 30 mg/kg, po by oral glucose tolerance test; format: functional, organism-based

hERG (KCNH2), sequence (Q12809 whole entry, the tested form may be a part): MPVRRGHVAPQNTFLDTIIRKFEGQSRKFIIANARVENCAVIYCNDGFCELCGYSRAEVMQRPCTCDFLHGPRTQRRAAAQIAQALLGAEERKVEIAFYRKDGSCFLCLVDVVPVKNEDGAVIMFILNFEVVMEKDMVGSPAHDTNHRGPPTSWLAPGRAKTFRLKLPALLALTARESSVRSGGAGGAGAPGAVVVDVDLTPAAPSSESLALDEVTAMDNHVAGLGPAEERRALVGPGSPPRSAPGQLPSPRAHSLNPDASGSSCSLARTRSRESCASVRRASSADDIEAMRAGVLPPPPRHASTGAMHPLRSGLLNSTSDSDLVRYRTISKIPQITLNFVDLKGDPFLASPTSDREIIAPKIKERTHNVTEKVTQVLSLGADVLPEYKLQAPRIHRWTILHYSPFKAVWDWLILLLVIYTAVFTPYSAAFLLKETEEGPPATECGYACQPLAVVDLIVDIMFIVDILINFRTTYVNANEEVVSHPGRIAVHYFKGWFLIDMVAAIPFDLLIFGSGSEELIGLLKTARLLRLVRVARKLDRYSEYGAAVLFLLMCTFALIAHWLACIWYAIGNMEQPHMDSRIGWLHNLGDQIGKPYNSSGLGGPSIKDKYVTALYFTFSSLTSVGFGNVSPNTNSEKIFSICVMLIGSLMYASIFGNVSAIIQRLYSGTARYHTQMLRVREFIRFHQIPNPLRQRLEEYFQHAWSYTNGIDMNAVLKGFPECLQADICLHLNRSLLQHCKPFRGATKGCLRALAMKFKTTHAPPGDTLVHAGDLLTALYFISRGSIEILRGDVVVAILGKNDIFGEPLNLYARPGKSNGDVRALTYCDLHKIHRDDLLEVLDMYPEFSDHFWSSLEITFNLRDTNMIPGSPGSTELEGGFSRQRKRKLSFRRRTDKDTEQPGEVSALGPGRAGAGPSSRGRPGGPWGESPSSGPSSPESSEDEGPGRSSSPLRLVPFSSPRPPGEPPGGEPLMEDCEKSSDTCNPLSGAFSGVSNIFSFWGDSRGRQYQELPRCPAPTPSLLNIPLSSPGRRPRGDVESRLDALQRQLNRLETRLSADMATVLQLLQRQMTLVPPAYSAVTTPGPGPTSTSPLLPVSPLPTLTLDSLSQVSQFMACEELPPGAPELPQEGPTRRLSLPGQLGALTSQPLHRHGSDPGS

SMILES	EC50 (Hexokinase-4)	%max [1]	inhibition at 10 µM (hERG (KCNH2))	further results
NC(=O)c1cnc(NC(=O)C(CC2CCOCC2)n2ncc3c(S(=O)(=O)C4CC4)cccc32)s1 (racemic)	1600 nM	49%	26%	
O=C(Nc1ncc(Cl)s1)[C@H](CC1CCOCC1)n1cc(S(=O)(=O)C2CCCC2)cn1	1000 nM	32%		
O=C(Nc1ncc(Cl)s1)[C@H](CC1CCOCC1)n1cc(S(=O)(=O)C2CC2)cn1	2000 nM	35%		hepatic extraction ratio [2]: 0.31 to 0.39; hepatic extraction ratio [3]: 0.31 to 0.39
Cc1ccc(NC(=O)C(CC2CCOCC2)n2ncc3c(S(=O)(=O)C4CC4)cccc32)nn1 (racemic)	7900 nM	50%	57%	
CC(C)(C)S(=O)(=O)c1cnn(C(CC2CCOCC2)C(=O)Nc2ncc(F)s2)c1 (racemic)	> 100000 nM	0%		
O=C(Nc1ncc(Cl)s1)C(CC1CCOCC1)n1ncc2ccc(S(=O)(=O)C3CC3)cc21 (racemic)	> 100000 nM	0%		
Cc1nnc(NC(=O)C(CC2CCOCC2)n2ncc3c(S(=O)(=O)C4CC4)cccc32)s1 (racemic)	5000 nM	74%	23%	
Cn1ccc(NC(=O)C(CC2CCOCC2)n2ncc3c(S(=O)(=O)C4CC4)cccc32)n1 (racemic)	1200 nM	79%	23%	
O=C(Nc1ccn(CCO)n1)C(CC1CCOCC1)n1ncc2c(S(=O)(=O)C3CC3)cccc21 (racemic)	3100 nM	73%	12.5%	
O=C(Nc1ncc(F)s1)[C@H](CC1CCOCC1)n1cc(S(=O)(=O)C2CC2)cn1	4000 nM	37%		hepatic extraction ratio [2]: 0.31 to 0.39; hepatic extraction ratio [3]: 0.31 to 0.39
O=C(Nc1ncc(F)s1)C(CC1CCOCC1)n1cc(S(=O)(=O)c2cccc(Cl)c2)cn1 (racemic)	> 100000 nM	0%		
Cc1cc(S(=O)(=O)C2CC2)cc(=O)n1[C@@H](CC1CCOCC1)C(=O)Nc1ncc(Cl)s1	1200 nM	77%		Activity (Mus musculus [11]): Active

These reach a lower EC50 (Hexokinase-4). Values come first.

EC50 (Hexokinase-4)	%max [1]	SMILES	inhibition at 10 µM (hERG (KCNH2))	further results
31 nM	65%	O=C(Nc1ncc(Cl)s1)[C@H](CC1CCOCC1)n1ncc2c(S(=O)(=O)C3CC3)cccc21	85 to 93%	fraction unbound [4]: 0.0004; hepatic extraction ratio [3]: 0.67; Ratio EC50 [5]: 40
120 nM	91%	O=C(Nc1ncc(F)s1)[C@H](CC1CCOCC1)n1ncc2c(S(=O)(=O)C3CC3)cc(F)cc21	77%	
40 nM	83%	O=C(Nc1ncc(F)s1)[C@H](CC1CCOCC1)n1ncc2c(S(=O)(=O)C3CC3)cccc21	84%	
200 nM	38%	NC(=O)c1cccnc1NC(=O)C(CC1CCOCC1)n1ncc2c(S(=O)(=O)C3CC3)cccc21 (racemic)	29%	
500 nM	26%	O=C(Nc1ncc(Cl)s1)[C@H](CC1CCOCC1)n1ncc2cc(S(=O)(=O)C3CC3)ccc21		
100 nM	74%	N#Cc1cc(S(=O)(=O)C2CC2)c2cnn(C(CC3CCOCC3)C(=O)Nc3ncc(F)s3)c2c1 (racemic)	83%	
100 nM	100%	COc1cc(S(=O)(=O)C2CC2)c2cnn([C@@H](CC3CCOCC3)C(=O)Nc3ncc(F)s3)c2c1	78%	
790 nM	95%	O=C(Nc1cnccn1)[C@H](CC1CCOCC1)n1ncc2c(S(=O)(=O)C3CC3)cccc21	45%	
630 nM	73%	O=C(Nc1ncc(F)s1)[C@H](CC1CCCC1)n1cc(S(=O)(=O)C2CC2)cn1		hepatic extraction ratio [2]: 0.85; hepatic extraction ratio [3]: 0.91
100 nM	97%	NC(=O)c1cc(S(=O)(=O)C2CC2)c2cnn([C@@H](CC3CCOCC3)C(=O)Nc3ncc(F)s3)c2c1		
80 nM	71%	O=C(Nc1ncc(F)s1)[C@H](CC1CCOCC1)n1ncc2c(S(=O)(=O)C3CC3)cncc21	46%	Activity (Mus musculus [6]): Active; hepatic extraction ratio [7]: 0.56; hepatic extraction ratio [2]: 0.33; hepatic extraction ratio [3]: 0.59; half-life [8]: 4.3 h; CL/F [9]: 29 mL/min/kg; Vd (Rattus norvegicus): 1.9 L/kg; bioavailability [10]: 51%; Activity (Mus musculus [11]): Active
100 nM	96%	O=C(Nc1ncc(F)s1)[C@H](CC1CCOCC1)n1ncc2c(S(=O)(=O)C3CC3)cc(O)cc21		
630 nM	88%	O=C(Nc1ncc(Cl)s1)[C@H](CC1CCCC1)n1cc(S(=O)(=O)C2CC2)cn1		hepatic extraction ratio [2]: 0.85; hepatic extraction ratio [3]: 0.91
120 nM	74%	O=C(Nc1ncc(F)s1)[C@H](CC1CCOCC1)n1ncc2c(S(=O)(=O)C3CC3)ccnc21	71%	
